Experimental data from ChEMBL document CHEMBL1201862, “PubChem BioAssay data set” (2004).
Active and inactive are the calls of the source.

Tests used:
NS3 = NS3 (Hepatitis C virus, UniProt A3EZJ3); assay: PubChem AID 2173; set-up: species or system Hepacivirus hominis
[1] = HEK-293T cell viability reduction – luminescence, B-cell screen hits, cytotoxicity control for BCR NF-kB inhibitor project, dose response (AID 489021); format: functional, cell-based;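 note: HEK-293T cells carrying an NF-kB luciferase reporter; cells exposed to compound for about 14 hours before viability readout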
[2] = alpha-synuclein stem-loop luciferase translation blockers – H4 neuroglioma cells, luminescence, confirmation (AID 1988); format: functional, cell-based
[3] = Luminescence Cell-Based Dose Response HTS to Identify Inhibitors of 5'UTR Stem-Loop Driven Prion Protein mRNA Translation in H4 Neuroglioblastoma Cells. [Related pubchem assays: 1827 (Project Summary), 1813 (Primary HTS)]; format: functional
[4] = luciferase reporter signal suppression in cells – H4 neuroglioma cells, luminescence, dose response (AID 1990); format: functional, cell-based
HEK293 [5] = assay: EBV LMP1 TES2 canonical NF-kB signalling blockers – cell-based, HEK293, luciferase, cherry-pick, dose response (AID 588343); format: functional; conditions: Homo sapiens
[6] = biological target: Peroxisome proliferator-activated receptor gamma/Nuclear receptor coactivator 1 (Homo sapiens, UniProt P37231); format: functional;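 note: agonist potency as compounds enhance coactivator SRC-1 recruitment to PPARgamma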
Sequence of Peroxisome proliferator-activated receptor gamma/Nuclear receptor coactivator 1 (P37231 whole entry): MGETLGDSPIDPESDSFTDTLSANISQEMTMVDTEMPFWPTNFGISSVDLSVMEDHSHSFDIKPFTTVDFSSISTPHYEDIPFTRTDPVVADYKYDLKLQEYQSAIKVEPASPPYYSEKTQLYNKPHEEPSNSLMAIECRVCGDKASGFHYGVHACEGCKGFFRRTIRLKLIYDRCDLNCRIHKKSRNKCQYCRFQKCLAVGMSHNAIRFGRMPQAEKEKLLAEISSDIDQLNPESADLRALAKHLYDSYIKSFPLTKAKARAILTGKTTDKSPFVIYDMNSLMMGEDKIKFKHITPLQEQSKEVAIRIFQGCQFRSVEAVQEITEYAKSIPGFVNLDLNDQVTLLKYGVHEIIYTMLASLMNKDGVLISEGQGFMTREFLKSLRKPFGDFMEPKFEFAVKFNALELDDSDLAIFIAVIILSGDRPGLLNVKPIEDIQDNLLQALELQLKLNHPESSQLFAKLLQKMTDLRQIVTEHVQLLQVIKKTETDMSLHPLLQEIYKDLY
Sequence of Peroxisome proliferator-activated receptor gamma/Nuclear receptor coactivator 1 (Q15788 whole entry, further chain): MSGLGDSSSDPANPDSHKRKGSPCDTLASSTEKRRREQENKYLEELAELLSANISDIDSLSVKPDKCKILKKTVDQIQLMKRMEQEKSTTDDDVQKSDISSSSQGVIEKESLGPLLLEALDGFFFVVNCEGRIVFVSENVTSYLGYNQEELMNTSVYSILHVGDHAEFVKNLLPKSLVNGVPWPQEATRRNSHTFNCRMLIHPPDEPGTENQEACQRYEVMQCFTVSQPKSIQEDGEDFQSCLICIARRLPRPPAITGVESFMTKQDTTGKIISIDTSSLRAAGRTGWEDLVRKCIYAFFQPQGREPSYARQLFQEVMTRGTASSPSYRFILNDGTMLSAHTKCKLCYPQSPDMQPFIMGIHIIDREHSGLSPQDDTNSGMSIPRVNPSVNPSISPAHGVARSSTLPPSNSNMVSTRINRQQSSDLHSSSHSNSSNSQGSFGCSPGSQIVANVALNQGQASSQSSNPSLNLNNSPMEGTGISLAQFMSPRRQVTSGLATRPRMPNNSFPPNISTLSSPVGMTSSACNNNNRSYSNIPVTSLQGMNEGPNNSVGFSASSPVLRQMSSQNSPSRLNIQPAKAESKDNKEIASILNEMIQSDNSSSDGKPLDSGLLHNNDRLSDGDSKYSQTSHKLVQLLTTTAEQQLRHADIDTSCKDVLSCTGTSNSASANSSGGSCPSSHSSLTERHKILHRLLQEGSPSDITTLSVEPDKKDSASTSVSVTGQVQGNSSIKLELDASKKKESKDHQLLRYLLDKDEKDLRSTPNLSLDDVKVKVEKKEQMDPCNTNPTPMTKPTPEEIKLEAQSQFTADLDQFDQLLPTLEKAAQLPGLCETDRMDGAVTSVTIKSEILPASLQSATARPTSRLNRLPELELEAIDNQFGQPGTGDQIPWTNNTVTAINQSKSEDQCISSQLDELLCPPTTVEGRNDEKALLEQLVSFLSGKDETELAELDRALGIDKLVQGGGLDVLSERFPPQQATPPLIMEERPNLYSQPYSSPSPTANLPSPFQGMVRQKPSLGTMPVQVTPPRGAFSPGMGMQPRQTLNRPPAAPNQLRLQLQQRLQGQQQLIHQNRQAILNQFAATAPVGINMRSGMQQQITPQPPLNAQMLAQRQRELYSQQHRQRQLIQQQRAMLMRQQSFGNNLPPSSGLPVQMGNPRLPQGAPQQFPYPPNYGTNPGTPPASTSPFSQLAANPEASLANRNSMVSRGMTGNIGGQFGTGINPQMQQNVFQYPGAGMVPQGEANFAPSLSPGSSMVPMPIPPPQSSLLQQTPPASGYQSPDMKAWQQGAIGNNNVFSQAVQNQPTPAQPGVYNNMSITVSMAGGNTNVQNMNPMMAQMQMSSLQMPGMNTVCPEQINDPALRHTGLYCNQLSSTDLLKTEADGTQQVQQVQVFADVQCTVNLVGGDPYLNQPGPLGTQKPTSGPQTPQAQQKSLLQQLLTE

[7] = biological target: T1, Corticotropin-releasing factor receptor 2/Corticotropin-releasing factor-binding protein (Homo sapiens, UniProt P24387+Q13324); assay: Dose Response confirmation of uHTS hits for small molecule antagonists of the CRF-binding protein and CRF-R2 receptor complex.; format: functional; conditions: read-out: IC50_Mean
T1 sequence (Q13324 whole entry): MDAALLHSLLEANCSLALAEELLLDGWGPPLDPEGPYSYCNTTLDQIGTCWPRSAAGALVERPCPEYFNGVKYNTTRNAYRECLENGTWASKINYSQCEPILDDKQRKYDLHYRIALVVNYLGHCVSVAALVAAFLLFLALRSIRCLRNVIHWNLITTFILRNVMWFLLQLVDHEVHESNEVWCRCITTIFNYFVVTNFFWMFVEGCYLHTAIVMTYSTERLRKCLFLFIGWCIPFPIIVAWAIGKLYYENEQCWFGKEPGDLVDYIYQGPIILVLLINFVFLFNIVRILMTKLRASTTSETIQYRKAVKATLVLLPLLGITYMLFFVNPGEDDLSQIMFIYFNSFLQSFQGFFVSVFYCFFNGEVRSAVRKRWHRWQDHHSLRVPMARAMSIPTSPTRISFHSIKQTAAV
T1 sequence (P24387 whole entry): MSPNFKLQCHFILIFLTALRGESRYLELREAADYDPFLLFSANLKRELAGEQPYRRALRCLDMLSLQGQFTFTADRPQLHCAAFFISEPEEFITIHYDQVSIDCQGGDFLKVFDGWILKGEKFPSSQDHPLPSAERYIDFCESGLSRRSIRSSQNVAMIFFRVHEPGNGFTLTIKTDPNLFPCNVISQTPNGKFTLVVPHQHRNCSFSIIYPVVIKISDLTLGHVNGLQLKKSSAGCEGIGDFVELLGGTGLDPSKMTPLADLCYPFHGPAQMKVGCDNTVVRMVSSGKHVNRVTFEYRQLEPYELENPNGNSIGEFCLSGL

[8] = biological target: Peroxisome proliferator-activated receptor gamma/Nuclear receptor coactivator 3 (Homo sapiens, UniProt P37231); format: functional;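 note: agonist potency for raising coactivator recruitment to the receptor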
Sequence of Peroxisome proliferator-activated receptor gamma/Nuclear receptor coactivator 3 (P37231 whole entry): as the sequence (P37231 whole entry) above
Sequence of Peroxisome proliferator-activated receptor gamma/Nuclear receptor coactivator 3 (Q9Y6Q9 whole entry, further chain): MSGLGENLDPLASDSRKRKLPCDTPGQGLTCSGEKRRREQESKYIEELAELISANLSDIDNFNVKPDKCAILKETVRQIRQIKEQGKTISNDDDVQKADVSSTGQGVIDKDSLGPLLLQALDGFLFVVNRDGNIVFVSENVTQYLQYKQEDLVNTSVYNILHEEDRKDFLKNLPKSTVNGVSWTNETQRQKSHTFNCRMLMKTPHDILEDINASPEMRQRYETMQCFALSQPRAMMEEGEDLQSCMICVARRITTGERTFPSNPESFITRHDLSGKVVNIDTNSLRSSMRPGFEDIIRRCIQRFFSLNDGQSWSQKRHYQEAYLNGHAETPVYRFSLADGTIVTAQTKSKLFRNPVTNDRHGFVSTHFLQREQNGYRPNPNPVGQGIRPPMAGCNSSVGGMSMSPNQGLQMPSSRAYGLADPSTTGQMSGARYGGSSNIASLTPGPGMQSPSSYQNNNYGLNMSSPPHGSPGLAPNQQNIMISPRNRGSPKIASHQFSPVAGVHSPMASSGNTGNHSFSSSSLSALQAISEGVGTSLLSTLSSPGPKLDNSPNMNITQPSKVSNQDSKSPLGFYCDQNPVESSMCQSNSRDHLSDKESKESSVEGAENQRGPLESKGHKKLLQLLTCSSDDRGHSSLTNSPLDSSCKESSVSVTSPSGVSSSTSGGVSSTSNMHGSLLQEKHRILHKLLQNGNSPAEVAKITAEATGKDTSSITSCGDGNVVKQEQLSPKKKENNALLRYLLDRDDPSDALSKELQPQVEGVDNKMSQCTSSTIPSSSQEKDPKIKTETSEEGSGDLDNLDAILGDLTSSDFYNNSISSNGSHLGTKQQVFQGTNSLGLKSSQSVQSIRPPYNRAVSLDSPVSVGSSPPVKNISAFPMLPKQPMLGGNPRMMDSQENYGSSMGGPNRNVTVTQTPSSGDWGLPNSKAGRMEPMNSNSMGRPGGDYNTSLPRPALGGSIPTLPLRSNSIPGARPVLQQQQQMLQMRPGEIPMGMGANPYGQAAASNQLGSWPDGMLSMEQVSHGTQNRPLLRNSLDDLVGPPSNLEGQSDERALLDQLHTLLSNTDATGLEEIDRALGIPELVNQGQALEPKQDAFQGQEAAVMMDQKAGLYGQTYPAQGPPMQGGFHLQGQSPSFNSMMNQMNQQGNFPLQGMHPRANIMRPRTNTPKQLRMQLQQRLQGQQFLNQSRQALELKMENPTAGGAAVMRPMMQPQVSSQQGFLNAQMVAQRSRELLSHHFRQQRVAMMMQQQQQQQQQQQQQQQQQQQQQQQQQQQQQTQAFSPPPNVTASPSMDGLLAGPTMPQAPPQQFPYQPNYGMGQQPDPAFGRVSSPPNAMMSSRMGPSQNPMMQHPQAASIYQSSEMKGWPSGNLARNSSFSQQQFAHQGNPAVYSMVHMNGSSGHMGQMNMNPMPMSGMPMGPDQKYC

[9] = biological target: T1, Corticotropin-releasing factor receptor 2/Corticotropin-releasing factor-binding protein; assay: activators of CRF receptor 2 with binding protein – uHTS hits, confirmation (AID 602473); format: functional; conditions: read-out: EC50_Mean
[10] = biological target: Peroxisome proliferator-activated receptor gamma/Nuclear receptor coactivator 2 (Homo sapiens, UniProt P37231); format: functional;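 note: agonist potency for raising coactivator recruitment to the receptor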
Vero [11] = assay: cells; format: functional, cell-based; conditions: Chlorocebus sabaeus
cells [12] = assay: cells
[13] = Luminescence Cell-Based Dose Response HTS to Identify Activators of Luciferase Translation or Activity in H4 […] Cells. [Related pubchem assays: 1829 (Project Summary), 1814 (Primary HTS)]; format: functional
H4 = assay: Luminescence Cell-Based Dose Response HTS to Identify Activators of 5'UTR Stem-Loop Driven Prion Protein mRNA Translation in H4 Neuroglioblastoma Cells. [Related pubchem assays: 1829 (Project Summary), 1814 (Primary HTS)]; format: functional; conditions: Homo sapiens
[14] = viability of uninfected HEp-2 cells – cell-based, HTS, cytotoxicity control for RSV inhibitor project, dose response (AID 2410); format: functional; conditions: human respiratory syncytial virus
Vero [15] = assay: cells; format: functional; conditions: Chlorocebus sabaeus
cells [16] = format: functional, cell-based
[17] = luciferase reporter signal reduction – luminescence, H4-C neuroglioblastoma cells, dose response (AID 2458); format: functional, cell-based;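 note: H4 neuroglioblastoma cells stably carrying a luciferase reporter gene fusion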
[18] = alpha-synuclein stem-loop translation blockers – luminescence, H4 neuroglioblastoma cells, dose confirmation, confirmation (AID 2454); format: functional, cell-based;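 note: H4 neuroglioblastoma cells carrying an alpha-synuclein 5'UTR luciferase reporter; potency for inhibition of the luciferase signal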
[19] = biological target: G-protein coupled receptor 55 (Homo sapiens, UniProt Q9Y2T6); assay: selective activators of receptor GPR55 – imaging, U2OS cells, beta-arrestin-GFP redistribution, primary screen (AID 1961); format: functional
Sequence of G-protein coupled receptor 55 (Q9Y2T6 whole entry): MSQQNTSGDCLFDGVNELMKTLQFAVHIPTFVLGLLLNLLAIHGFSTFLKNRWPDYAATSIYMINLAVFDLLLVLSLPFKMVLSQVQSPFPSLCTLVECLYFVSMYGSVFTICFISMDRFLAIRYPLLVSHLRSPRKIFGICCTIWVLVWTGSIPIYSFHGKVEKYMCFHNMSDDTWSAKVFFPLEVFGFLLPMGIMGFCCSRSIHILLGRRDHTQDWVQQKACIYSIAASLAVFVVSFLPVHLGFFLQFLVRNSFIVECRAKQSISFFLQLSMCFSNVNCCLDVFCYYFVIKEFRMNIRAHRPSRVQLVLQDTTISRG

[20] = biological target: T2, Neuropeptide Y receptor type 1 (Homo sapiens, UniProt P25929); assay: Fluorescence-based counterscreen for agonists of NPY-Y2: cell-based high-throughput dose response assay for agonists of NPY-Y1.; format: functional
T2 sequence (P25929 whole entry): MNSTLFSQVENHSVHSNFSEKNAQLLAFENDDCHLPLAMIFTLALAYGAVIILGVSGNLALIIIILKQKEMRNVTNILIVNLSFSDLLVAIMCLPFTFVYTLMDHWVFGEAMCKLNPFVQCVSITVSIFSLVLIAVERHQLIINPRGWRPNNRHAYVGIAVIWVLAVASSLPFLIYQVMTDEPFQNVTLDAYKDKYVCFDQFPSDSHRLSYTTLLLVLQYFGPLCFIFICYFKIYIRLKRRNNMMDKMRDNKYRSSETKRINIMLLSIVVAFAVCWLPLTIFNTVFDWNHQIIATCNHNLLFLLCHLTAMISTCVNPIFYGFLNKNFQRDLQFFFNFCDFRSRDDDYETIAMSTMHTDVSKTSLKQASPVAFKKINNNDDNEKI

HEK293 [21] = assay: Fluorescence-based counterscreen for potentiators or agonists of NPY-Y2: cell-based high-throughput dose response assay to identify inhibitors of cyclic nucleotide gated ion channel (CNGC) activity. In this assay, the parental HEK293 cell line transfected with a cyclic-nucleotide gated ion channel (CNGC)-based cAMP sensor is used to measure inhibition of isoproterenol-induced CNGC activity by test compound.; format: functional; conditions: Homo sapiens
[22] = biological target: T3, Neuropeptide Y receptor type 2 (Homo sapiens, UniProt P49146); assay: Fluorescence-based cell-based high-throughput dose response assay for agonists of NPY-Y2. [Related pubchem assays: 1703 (Screening assay (CNGC inhibitors).), 1359 (Screening assay (NPY-Y2 potentiators or agonists).), 1304 (Screening assay (NPY-Y1 potentiators or agonists).), 1710 (Screening assay (NPY-Y2 agonists).), 1791 (Summary AID.)]; format: functional
T3 sequence (P49146 whole entry): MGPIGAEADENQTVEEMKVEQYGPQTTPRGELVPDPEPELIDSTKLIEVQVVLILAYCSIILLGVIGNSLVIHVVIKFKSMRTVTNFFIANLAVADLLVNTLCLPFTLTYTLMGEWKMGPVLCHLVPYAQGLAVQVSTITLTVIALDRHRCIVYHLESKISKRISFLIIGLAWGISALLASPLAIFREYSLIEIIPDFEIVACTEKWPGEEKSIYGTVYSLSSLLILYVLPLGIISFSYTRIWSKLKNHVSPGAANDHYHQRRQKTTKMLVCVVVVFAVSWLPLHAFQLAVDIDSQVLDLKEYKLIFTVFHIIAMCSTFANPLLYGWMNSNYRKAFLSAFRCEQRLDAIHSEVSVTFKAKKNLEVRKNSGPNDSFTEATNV

cells [23] = format: functional
[24] = THP-1 cell cytotoxicity, dose response, cytotoxicity control for non-replicating M. tuberculosis project (AID 489025); format: functional
[25] = HepG2 cell cytotoxicity, dose response, cytotoxicity control for non-replicating M. tuberculosis project (AID 489018); format: functional; conditions: Mycobacterium tuberculosis
[26] = biological target: Voltage-dependent T-type calcium channel subunit alpha-1H (Homo sapiens, UniProt O95180); format: functional;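 note: channel activity triggered by adding a high calcium stimulation buffer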
[27] = Vero E6 cell cytotoxicity, dose response, cytotoxicity control for non-replicating M. tuberculosis project, secondary assay (AID 492998); format: functional, VeroE6; conditions: Vero C1008

Sequence of NS3 (A3EZJ3 whole entry): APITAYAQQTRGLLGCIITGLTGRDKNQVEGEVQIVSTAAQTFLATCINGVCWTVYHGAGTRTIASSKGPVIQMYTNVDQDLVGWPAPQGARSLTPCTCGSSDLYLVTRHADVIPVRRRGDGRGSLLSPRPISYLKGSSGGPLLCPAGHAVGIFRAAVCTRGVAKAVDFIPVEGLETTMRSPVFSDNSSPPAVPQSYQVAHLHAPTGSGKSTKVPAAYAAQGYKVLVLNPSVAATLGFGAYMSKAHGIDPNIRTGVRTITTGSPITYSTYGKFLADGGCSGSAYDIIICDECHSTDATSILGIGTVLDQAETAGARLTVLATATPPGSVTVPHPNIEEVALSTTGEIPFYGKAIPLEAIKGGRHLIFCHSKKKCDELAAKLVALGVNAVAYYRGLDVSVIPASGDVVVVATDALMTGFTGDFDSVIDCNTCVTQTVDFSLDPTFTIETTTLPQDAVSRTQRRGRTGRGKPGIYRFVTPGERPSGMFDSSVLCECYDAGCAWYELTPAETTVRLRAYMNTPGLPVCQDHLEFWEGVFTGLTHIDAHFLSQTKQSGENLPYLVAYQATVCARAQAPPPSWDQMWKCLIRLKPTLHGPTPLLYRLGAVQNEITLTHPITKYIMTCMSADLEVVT

## O=C1/C(=C/C=C/C=C/Nc2ccccc2)SC(=S)N1Cc1ccccc1
NS3
  IC50: 17.3 µM (not active)

## COc1cccc(-c2noc(CCC(=O)NCCc3ccccc3)n2)c1
[1]
  IC50: > 80 µM (inactive)

## CCOC(=O)CNC(=O)CSc1nnc(NC(=O)c2ccc(C)cc2)s1
[2]
  EC50: 7.31 µM (active)
[1]
  IC50: > 80 µM (inactive)
[3]
  EC50: 11 µM (active)
[4]
  EC50: 9.66 µM (active)
HEK293 [5]
  AC50: 1.65 µM (active)

## COc1ccc(NS(=O)(=O)c2c(C)n(C)c(=O)n(C)c2=O)cc1OC
[6]
  EC50: > 79.4 µM (not active)
[7]
  IC50: > 47.1 µM (inactive)
[8]
  EC50: > 79.4 µM (not active)
[9]
  EC50: > 53 µM (inactive)
[10]
  EC50: > 79.4 µM (not active)

## CCN(CC)C(=O)N1c2ccccc2C=Cc2ccccc21
Vero [11]
  IC50: 4.41 µM (active)
Cells [12]
  IC50: 2.02 µM (active)
[13]
  EC50: 30 µM (active)
H4
  EC50: > 120 µM (not active)
[14]
  CC50: 9.46 µM (active)
Vero [15]
  CC50: > 25 µM (active)

## Cn1c2ccc(Br)cc2c2nnc(SCC(=O)O)nc21
[2]
  EC50: 29.3 µM (active)
Cells [16]
  EC50: > 12 µM (not active)
[3]
  EC50: < 0.1 µM (active)
[17]
  EC50: > 12 µM (not active)
[4]
  EC50: > 60 µM (not active)
[18]
  EC50: 9.55 µM (active)

## Cc1ccc2c(Cl)cc(Cl)c(OCC(=O)Nc3ccc(C)c(S(=O)(=O)N(C)C)c3)c2n1
[19]
  EC50: > 32 µM (inactive)

## CC(SC(=S)N1CCCC1)C(=O)O (stereo not drawn)
[20]
  EC50: > 35.4 µM (not active)
HEK293 [21]
  EC50: > 35.4 µM (not active)
[22]
  EC50: > 35.4 µM (not active)

## CCC1CCCCN1S(=O)(=O)c1ccc(C(=O)Nc2nnc(-c3cccs3)o2)cc1 (stereo not drawn)
Cells [23]
  IC50: 6.49 µM (active)
[24]
  CC50: 3.49 µM (active)
[25]
  CC50: 9.09 µM (active)
[26]
  EC50: 1.44 µM (active)
[27]
  CC50: 2.43 µM (active)
